Experimental findings from PMC5853558, “De novo identification of lipid II binding lipopeptides with antibacterial activity against vancomycin-resistant bacteria” (Chemical Science, 2017) are described below.

In one data set the test system is C55-PP. Nature of the data set: Antagonization assay with C55-PP. Format: cell-based, M. luteus. Further details: key to Result with antagonist C55-PP: +: antagonization of antibiotic activity; -: no antagonization of antibiotic activity. The note with it: for Result with antagonist C55-PP: Supplemental table S10, peptide at 4x MIC, M. luteus, 16 h at 30°C, growth observed visually; for Effect of adding C55-PP on antibiotic activity: antagonization experiment using C55-PP. The protocol: To assess the role of lipid II in the mode of action of the lipopeptides a lipid II antagonization assay was employed.[18],[33] This assay was performed by premixing P8-D-C10 or the optimized P8-D-(S6R, R15A)-C10 with an excess of lipid II prior to addition of a live culture of M. luteus. […] To probe the stereochemical aspects of lipid II recognition by the optimized P8-D-(S6R, R15A)-C10 lipopeptide we also prepared and tested the corresponding enantiomeric L-peptide species P8-L-(S6R, R15A)-C10. […] Given that lipid II is a chiral biomolecule we had expected the enantiomeric lipopeptides to have different activities based on the assumption that they would interact differently with lipid II. To further investigate this phenomenon we employed the same lipid II antagonization assay described above. […] To explain this observation we hypothesize that the two enantiomeric peptides interact primarily with the pyrophosphate moiety of lipid II and are therefore less influenced by the chiral elements present elsewhere in the lipid II molecule. The pyrophosphate group is known to be a binding site for many natural occurring lipid II binding peptides.[15],[16] […] To test the hypothesis that both the P8-D-(S6R, R15A)-C10 and P8-L-(S6R, R15A)-C10 lipopeptides interact with the pyrophosphate moiety we performed an additional antagonizaiton experiment using C55-PP.
(§1) Section 4 Biological and biochemical experiments
(§2) 4.1 Minimum inhibitory concentration assay
(§3) MIC values were determined by using the broth microdilution method. Peptides were dissolved first in DMSO and diluted with broth so that the final peptide concentration was 1024 µg/ml and the DMSO concentration was 4%. Peptide serial dilutions were made in TSB in a polypropylene 96-wells plate using 50 µl volumes. An overnight culture of the organism of interest was diluted to and OD600 of 0.01 and grown until they reach 0.5. The culture was then diluted to 1 x 10^6 CFU/ml and 50 µl of this suspension was added to each well. The highest concentrations were then 512 µg/ml peptide and 2% DMSO. The plates were incubated at the preferred growth temperature of the organism that was used and 250 rpm. […] When […]
(§4) determining the MICs of the lipidated peptides, the lipopeptides were first dissolved in DMSO and diluted with TSB so that the peptide concentration was 128 µg/ml and the DMSO concentration was 4%. After inoculation the highest peptide concentration evaluated was 64 µg/ml and the DMSO concentration was 2%. A DMSO control was tested for each strain to ensure the DMSO did not affect the growth of the particular strain. […]
(§5) 4.4 Antagonization assays
(§6) Stock solutions of each peptide antibiotic were prepared so that their final concentration in the assay would be 4x MIC. Peptides were transferred to a 96 wells plate and lipid II or C15-P (farnesyl-phosphate) was added at 4 molar equivalents in a final volume of 50 µl. Each well received 50 µl of bacterial suspension (M. luteus) at 1 x 10^6 CFU/ml and the plates were incubated for 16 h at 250 rpm and 30°C. Growth was observed visually (see supplemental table S10 for results).

The test system of the next data set is Sheep blood. Nature of the data set: Hemolysis assay. It is filed as cell-based. The following applies: Supplemental table S9; 1 hour incubation at 37 °C, lipopeptides at 32 µg/mL. On the procedure: Sheep blood in Alsever’s solution (2 mL) was diluted with PBS (13 mL) and centrifuged (2,000 RPM, 5 min). The supernatant was discarded and the cells were washed with another 13 mL of PBS and centrifuged. Washing was continued until the supernatant was clear. After the final wash the supernatant was discarded and the packed cells were kept on ice. Serial dilutions of each peptide were made in 50 µl PBS with the highest tested concentration 64 µg/mL in PBS, 2%
DMSO. The packed cells (150 µL) were suspended in PBS (10 mL) and 50 µL of this suspension was added to each well. A well plate column containing 0.1% triton x-100 in DI water was used as the 100% lysis control and a second column with PBS (with 2% DMSO) served as the 0% lysis control. After incubation at 37°C for 1h the plates were centrifuged (2,000 RPM, 5 min) and 25 µL of the supernatant was added to 100 µL DI water in a flat-bottom 96-wells plate (polystyrene). […]

Another data set concerns E. faecium (E980). Nature of the data set: microbe, parasite or virus in culture. It is filed as cell-based, Enterococcus faecium. A digest of the protocol: (§7)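 TSB microdilution MIC. Top final peptide 512 µg/ml, lipopeptides 64 µg/ml, DMSO 2%; cells grown to OD600 0.5, suspension at 1 x 10^6 CFU/ml added 1:1; shaken 250 rpm at strain's optimal temperature; DMSO-only control per strain.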

In another data set the test system is E. faecium (VRE2297). Nature of the data set: microbe, parasite or virus in culture. It is filed as cell-based, Enterococcus faecium. In outline: as §7
The subject of another data set is E. faecium (VRE0321). Nature of the data set: microbe, parasite or virus in culture. Format: cell-based, Enterococcus faecium. In outline: as §7
A further data set has as its system E. faecium (VRE155). Nature of the data set: microbe, parasite or virus in culture. It is filed as cell-based, Enterococcus faecium. In outline: as §7
The next data set concerns E. faecium (VRE7391). Nature of the data set: microbe, parasite or virus in culture. It is filed as cell-based, Enterococcus faecium. In outline:
as §7

Data set [1] relates to C15-P (farnesyl-phosphate). Nature of the data set: Antagonization assay with C15-P (negative control). Format: cell-based. Further details: key: +: antagonization of antibiotic activity; -: no antagonization of antibiotic activity. The note with it: Supplemental table S10, peptide at 4x MIC, 4 molar equivalents, M. luteus, 16 h at 30°C, growth observed visually. The protocol: as §1, §2, §3, §4, §5, §6
Supplemental table S10. Lipid II antagonization assay results
Result with indicated antagonista
Antibiotic compound Lipid II C55-PP C15-Pb […]
a + = antagonization of antibiotic activity; - = no antagonization of antibiotic activity; b C -P was used as a negative […]
control (C15-P is a watersoluble analogue of the lipid II precursor undecaprenol phosphate).
4.6 Scanning Electron Microscopy
E. faecium E155 was inoculated at an OD600nm of 0.05 into 300 µL of cation adjusted TSB containing P8-D-(S6R, R15A)-C10 or nisin at (both a 2x MIC) along with 1% glucose and 1%
DMSO. An untreated culture was used as control. Following overnight incubation (ca. 16 hr) bacterial cells were fixed for 15 minutes with 1% (v/v) glutaraldehyde in phosphate buffered saline (PBS) at room temperature on poly-L-lysine covered glass slides (12 mm diameter). […]

[2] abbreviates: Supplemental table S9, MIC values of Table 2 expressed in µM.
Setting [3] is: Table 2, broth microdilution in TSB, 16 h, read visually, highest tested 64 µg/ml.
Setting [4] is: Supplemental table S9, vancomycin-resistant isolate, MIC values of Table 2 expressed in µM.
[5] abbreviates: Table 2, vancomycin-resistant isolate from hospitalized patients, broth microdilution in TSB, 16 h, highest tested 64 µg/ml.

SMILES strings stand for the structures. In brackets after ≈: the same amount, converted by molar mass. *1 amine or outer side, *2 acyl side, *3 side chain or, on linkers, in order; H or OH if unused. Where a SMILES comes first, the peptide text is derived from it. Bridges are numbered along the chain shown (N, C = ends). [ ]: non-standard residue; d: D form. The star is where a group is joined. TBMB = c1c(C[*:1])cc(C[*:3])cc1C[*:2]; NHDecyl = CCCCCCCCCCN*

Regarding `CCCCCCCCCCNC(=O)CNC(=O)[C@H]1CSCc2cc3cc(c2)CSC[C@@H](NC(=O)[C@@H](CC(C)C)NC(=O)[C@@H](CC(C)C)NC(=O)[C@@H](CCCNC(=N)N)NC(=O)[C@@H](CCC(N)=O)NC(=O)[C@@H](CC(C)C)NC(=O)[C@@H](CC(C)C)NC(=O)[C@H](NC(=O)[C@@H](C)N)CSC3)C(=O)N2CCC[C@@H]2C(=O)N[C@H](Cc2ccc(O)cc2)C(=O)N[C@H](CO)C(=O)N[C@H]([C@H](C)O)C(=O)N[C@H](Cc2c[nH]cn2)C(=O)N[C@H](C)C(=O)N1` [P8-D-(S6R, R15A)-C10] (H-[dA][dC][dL][dL][dQ][dR][dL][dL][dC][dP][dY][dS][dT][dH][dA][dC]G-NHDecyl; linker 2-9-16 via TBMB; N-terminus assumed), the “Result with antagonist C55-PP” value with C55-PP is given as “+”. Besides, in the data set on C55-PP, the “Effect of adding C55-PP on antibiotic activity” value is listed as “complete loss of antibiotic activity”. The compound further came in with a Hemolysis in the data set on Sheep blood of 0%. In addition, the “MIC E. faecium (E980)” value against E. faecium (E980) (setting [2]) is listed as 30.5 µM (≈ 64.1 µg/mL); with E. faecium (E980) (setting [3]), 32 μg mL^–1. In addition, the “MIC E. faecium (VRE2297)” value in the data set with E. faecium (VRE2297) (setting [4]) was found to be 15.2 µM (≈ 32 µg/mL); against E. faecium (VRE2297) (setting [5]), 16 μg mL^–1. Moreover, the figures for the “MIC E. faecium (VRE0321)” value against E. faecium (VRE0321) (setting [4]) and with E. faecium (VRE0321) (setting [5]) were 7.6 µM (≈ 16 µg/mL) and 8 μg mL^–1, respectively. Further, the “MIC E. faecium (VRE155)” value against E. faecium (VRE155) (setting [4]) was found to be 7.6 µM (≈ 16 µg/mL); against E. faecium (VRE155) (setting [5]), 8 μg mL^–1. The “MIC E. faecium (VRE7391)” value with E. faecium (VRE7391) (setting [4]) amounted to 15.2 µM (≈ 32 µg/mL); in the data set with E. faecium (VRE7391) (setting [5]) it was 16 μg mL^–1. Besides, in data set [1], the “Result with antagonist C15-P” value was “-”.
For `CCCCCCCCCCNC(=O)CNC(=O)[C@@H]1CSCc2cc3cc(c2)CSC[C@H](NC(=O)[C@H](CC(C)C)NC(=O)[C@H](CC(C)C)NC(=O)[C@H](CCCNC(=N)N)NC(=O)[C@H](CCC(N)=O)NC(=O)[C@H](CC(C)C)NC(=O)[C@H](CC(C)C)NC(=O)[C@@H](NC(=O)[C@H](C)N)CSC3)C(=O)N2CCC[C@H]2C(=O)N[C@@H](Cc2ccc(O)cc2)C(=O)N[C@@H](CO)C(=O)N[C@@H]([C@@H](C)O)C(=O)N[C@@H](Cc2c[nH]cn2)C(=O)N[C@@H](C)C(=O)N1` [P8-L-(S6R, R15A)-C10] (H-ACLLQRLLCPYSTHACG-NHDecyl; linker 2-9-16 via TBMB; N-terminus assumed), the “Result with antagonist C55-PP” value in the data set on C55-PP is reported as “+”. Also, the “Effect of adding C55-PP on antibiotic activity” value with C55-PP is “complete loss of antibiotic activity”. In the data set with Sheep blood, the Hemolysis is 0%. The “MIC E. faecium (E980)” value with E. faecium (E980) (setting [2]) came to 30.5 µM (≈ 64.1 µg/mL); against E. faecium (E980) (setting [3]), 32 μg mL^–1. The “MIC E. faecium (VRE2297)” value is reported as 15.2 µM (≈ 32 µg/mL) in the data set with E. faecium (VRE2297) (setting [4]) and 16 μg mL^–1 in the data set on E. faecium (VRE2297) (setting [5]). The “MIC E. faecium (VRE0321)” value against E. faecium (VRE0321) (setting [4]) stood at 7.6 µM (≈ 16 µg/mL); against E. faecium (VRE0321) (setting [5]), 8 μg mL^–1. Besides, the “MIC E. faecium (VRE155)” value against E. faecium (VRE155) (setting [4]) stood at 7.6 µM (≈ 16 µg/mL); with E. faecium (VRE155) (setting [5]) it was 8 μg mL^–1. Further, the “MIC E. faecium (VRE7391)” value in the data set on E. faecium (VRE7391) (setting [4]) is recorded as 15.2 µM (≈ 32 µg/mL); against E. faecium (VRE7391) (setting [5]), 16 μg mL^–1. The “Result with antagonist C15-P” value in data set [1] is given as “-”.
